Results as given in ChEMBL document CHEMBL1909046, “DrugMatrix in vitro pharmacology data”.

Columns and labels:
[1] = biological target: T1, Type-2 angiotensin II receptor (Homo sapiens, UniProt P50052); assay type: cell-based; settings: cho-k1; further: in other assays of this panel Not Active means under 50% inhibition at 10 µM
T1 sequence (P50052 whole entry): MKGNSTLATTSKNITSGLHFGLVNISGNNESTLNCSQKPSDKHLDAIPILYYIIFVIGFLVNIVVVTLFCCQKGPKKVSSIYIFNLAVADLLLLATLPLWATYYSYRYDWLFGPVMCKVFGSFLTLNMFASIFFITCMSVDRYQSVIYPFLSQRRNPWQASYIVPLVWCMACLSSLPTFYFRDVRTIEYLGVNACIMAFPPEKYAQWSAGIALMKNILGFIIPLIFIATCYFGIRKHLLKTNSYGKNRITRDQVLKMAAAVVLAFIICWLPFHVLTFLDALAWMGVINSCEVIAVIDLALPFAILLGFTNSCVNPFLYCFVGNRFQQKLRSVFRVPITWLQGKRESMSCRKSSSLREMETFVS

[2] = DRUGMATRIX: GABAA, Chloride Channel, TBOB radioligand binding (ligand: [3H] TBOB); assay type: cell membranes, Rattus norvegicus, Wistar, Cerebral cortex, Membrane; settings: Not Active = under 50% inhibition at 10 µM
Cytochrome P450 1A2 = biological target: T2, Cytochrome P450 1A2 (Homo sapiens, UniProt P05177); settings: bti-tn-5b1-4; further: in other assays of this panel Not Active means under 50% inhibition at 10 µM
T2 sequence (P05177 whole entry): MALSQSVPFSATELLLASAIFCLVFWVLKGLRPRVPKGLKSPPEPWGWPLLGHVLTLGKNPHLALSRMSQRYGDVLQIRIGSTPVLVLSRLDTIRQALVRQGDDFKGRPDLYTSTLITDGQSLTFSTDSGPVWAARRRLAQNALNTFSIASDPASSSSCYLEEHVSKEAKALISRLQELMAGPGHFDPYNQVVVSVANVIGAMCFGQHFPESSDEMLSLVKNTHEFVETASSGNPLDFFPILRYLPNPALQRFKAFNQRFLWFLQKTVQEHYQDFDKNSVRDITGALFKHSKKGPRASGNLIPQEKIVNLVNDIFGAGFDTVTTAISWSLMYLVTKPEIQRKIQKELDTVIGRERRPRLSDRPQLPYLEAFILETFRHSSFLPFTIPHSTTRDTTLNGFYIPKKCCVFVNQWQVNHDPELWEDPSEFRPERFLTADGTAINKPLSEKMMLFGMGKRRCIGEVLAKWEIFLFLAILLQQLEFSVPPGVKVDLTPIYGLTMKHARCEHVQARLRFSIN

[3] = biological target: 5-hydroxytryptamine receptor 2B (Homo sapiens, UniProt P41595); assay type: cell membranes, CHO-K1, Membrane; settings: cho-k1; further: in other assays of this panel Not Active means under 50% inhibition at 10 µM
Sequence of 5-hydroxytryptamine receptor 2B (P41595 whole entry): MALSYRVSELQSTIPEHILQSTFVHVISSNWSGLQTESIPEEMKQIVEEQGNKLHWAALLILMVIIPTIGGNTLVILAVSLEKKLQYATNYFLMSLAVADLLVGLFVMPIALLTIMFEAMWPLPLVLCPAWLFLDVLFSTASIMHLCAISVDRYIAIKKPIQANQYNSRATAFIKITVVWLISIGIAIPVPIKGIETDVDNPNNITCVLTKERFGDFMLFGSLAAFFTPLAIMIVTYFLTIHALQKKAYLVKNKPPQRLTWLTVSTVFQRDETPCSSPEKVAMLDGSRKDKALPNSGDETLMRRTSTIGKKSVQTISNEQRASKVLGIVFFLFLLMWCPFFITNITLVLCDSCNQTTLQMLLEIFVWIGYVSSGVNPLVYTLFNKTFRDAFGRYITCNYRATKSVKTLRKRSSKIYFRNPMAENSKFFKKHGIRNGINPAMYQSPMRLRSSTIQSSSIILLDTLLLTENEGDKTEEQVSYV

[4] = biological target: C-C chemokine receptor type 5 (Homo sapiens, UniProt P51681); assay type: cell membranes, HEK293, Membrane; settings: hek293; further: in other assays of this panel Not Active means under 50% inhibition at 10 µM
Sequence of C-C chemokine receptor type 5 (P51681 whole entry): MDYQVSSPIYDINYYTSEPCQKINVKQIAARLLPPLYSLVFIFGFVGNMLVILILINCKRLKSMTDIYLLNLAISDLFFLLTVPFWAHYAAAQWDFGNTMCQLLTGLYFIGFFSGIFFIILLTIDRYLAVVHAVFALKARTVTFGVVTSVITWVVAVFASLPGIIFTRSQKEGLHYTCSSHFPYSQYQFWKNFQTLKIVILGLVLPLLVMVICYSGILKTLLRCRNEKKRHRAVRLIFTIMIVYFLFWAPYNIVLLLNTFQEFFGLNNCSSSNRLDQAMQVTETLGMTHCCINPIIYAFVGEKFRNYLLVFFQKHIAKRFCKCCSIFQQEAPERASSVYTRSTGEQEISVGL

[5] = DRUGMATRIX: Calcium Channel Type L, Dihydropyridine radioligand binding (ligand: [3H] Nitrendipine); assay type: cell membranes, Rattus norvegicus, Wistar, Cerebral cortex, Membrane; settings: Not Active = under 50% inhibition at 10 µM
[6] = DRUGMATRIX: Calcium Channel Type L, Phenylalkylamine radioligand binding (ligand: [3H] (-)-Desmethoxyverapamil (D-888)); assay type: cell membranes, Rattus norvegicus, Wistar, Brain, Membrane; settings: Not Active = under 50% inhibition at 10 µM
D(1A) dopamine receptor = D(1A) dopamine receptor (Homo sapiens, UniProt P21728); assay: DRUGMATRIX: Dopamine D1 radioligand binding (ligand: [3H] SCH-23390); assay type: cell membranes, Membrane; settings: cho; Not Active = under 50% inhibition at 10 µM
Sequence of D(1A) dopamine receptor (P21728 whole entry): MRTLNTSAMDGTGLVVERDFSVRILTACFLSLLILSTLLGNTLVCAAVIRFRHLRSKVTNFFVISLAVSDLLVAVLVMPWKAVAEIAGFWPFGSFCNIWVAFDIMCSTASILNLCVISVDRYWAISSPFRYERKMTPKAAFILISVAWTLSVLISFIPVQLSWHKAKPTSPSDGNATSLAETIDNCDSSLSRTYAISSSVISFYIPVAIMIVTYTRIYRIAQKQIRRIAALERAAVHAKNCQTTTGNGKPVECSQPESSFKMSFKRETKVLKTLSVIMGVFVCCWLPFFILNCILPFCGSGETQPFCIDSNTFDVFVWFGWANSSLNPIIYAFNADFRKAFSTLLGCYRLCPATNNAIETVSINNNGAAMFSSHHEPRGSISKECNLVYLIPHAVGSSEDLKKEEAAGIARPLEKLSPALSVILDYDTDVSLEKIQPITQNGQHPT

[H]/N=C(/N)N[C@H]1[C@H](O)[C@@H](O)[C@H](O[C@@H]2O[C@@H](C)[C@](O)(C=O)[C@H]2O[C@@H]2O[C@@H](CO)[C@H](O)[C@@H](O)[C@@H]2NC)[C@@H](N/C(N)=N\[H])[C@@H]1O [STREPTOMYCIN]
Not Active: IC50 [1] | IC50 [2] | Ki [2] | IC50 (Cytochrome P450 1A2) | Ki (Cytochrome P450 1A2) | IC50 [3] | IC50 [4] | IC50 [5] | Ki [5] | IC50 [6] | Ki [6] | IC50 (D(1A) dopamine receptor)

COc1cc(NS(=O)(=O)c2ccc(N)cc2)nc(OC)n1 [SULFADIMETHOXINE]
Not Active: IC50 [1] | IC50 [2] | Ki [2] | IC50 (Cytochrome P450 1A2) | Ki (Cytochrome P450 1A2) | IC50 [3] | IC50 [4] | IC50 [5] | Ki [5] | IC50 [6] | Ki [6] | IC50 (D(1A) dopamine receptor)

Cc1cc(C)nc(NS(=O)(=O)c2ccc(N)cc2)n1 [SULFAMETHAZINE]
Not Active: IC50 [1] | IC50 [2] | Ki [2] | IC50 (Cytochrome P450 1A2) | Ki (Cytochrome P450 1A2) | IC50 [3] | IC50 [4] | IC50 [5] | Ki [5] | IC50 [6] | Ki [6] | IC50 (D(1A) dopamine receptor)

C[C@]1(Cn2ccnn2)[C@H](C(=O)O)N2C(=O)C[C@H]2S1(=O)=O [TAZOBACTAM]
Not Active: IC50 [1] | IC50 [2] | Ki [2] | IC50 (Cytochrome P450 1A2) | Ki (Cytochrome P450 1A2) | IC50 [3] | IC50 [4] | IC50 [5] | Ki [5] | IC50 [6] | Ki [6] | IC50 (D(1A) dopamine receptor)

CN1C(C(=O)Nc2ccccn2)=C(O)c2sccc2S1(=O)=O [TENOXICAM]
Not Active: IC50 [1] | IC50 [2] | Ki [2] | IC50 (Cytochrome P450 1A2) | Ki (Cytochrome P450 1A2) | IC50 [3] | IC50 [4] | IC50 [5] | Ki [5] | IC50 [6] | Ki [6] | IC50 (D(1A) dopamine receptor)

O=C1CCC(N2C(=O)c3ccccc3C2=O)C(=O)N1 (stereo unspecified) [THALIDOMIDE]
Not Active: IC50 [1] | IC50 [2] | Ki [2] | IC50 (Cytochrome P450 1A2) | Ki (Cytochrome P450 1A2) | IC50 [3] | IC50 [4] | IC50 [5] | Ki [5] | IC50 [6] | Ki [6] | IC50 (D(1A) dopamine receptor)

Cc1cccc(Nc2ccncc2S(=O)(=O)NC(=O)NC(C)C)c1 [TORSEMIDE]
Not Active: IC50 [1] | IC50 [2] | Ki [2] | IC50 (Cytochrome P450 1A2) | Ki (Cytochrome P450 1A2) | IC50 [3] | IC50 [4] | IC50 [5] | Ki [5] | IC50 [6] | Ki [6] | IC50 (D(1A) dopamine receptor)

CC(C)C[C@H](NC(=O)[C@@H](O)[C@H](N)Cc1ccccc1)C(=O)O [UBENIMEX]
Not Active: IC50 [1] | IC50 [2] | Ki [2] | IC50 (Cytochrome P450 1A2) | Ki (Cytochrome P450 1A2) | IC50 [3] | IC50 [4] | IC50 [5] | Ki [5] | IC50 [6] | Ki [6] | IC50 (D(1A) dopamine receptor)

Cc1onc(-c2ccccc2)c1-c1ccc(S(N)(=O)=O)cc1 [VALDECOXIB]
Not Active: IC50 [1] | IC50 [2] | Ki [2] | IC50 (Cytochrome P450 1A2) | Ki (Cytochrome P450 1A2) | IC50 [3] | IC50 [4] | IC50 [5] | Ki [5] | IC50 [6] | Ki [6] | IC50 (D(1A) dopamine receptor)

CC[C@]1(O)C[C@@H]2CN(CCc3c([nH]c4ccccc34)[C@@](C(=O)OC)(c3cc4c(cc3OC)N(C)[C@H]3[C@@](O)(C(=O)OC)[C@H](OC(C)=O)[C@]5(CC)C=CCN6CC[C@]43[C@@H]65)C2)C1 [VINBLASTINE]
Not Active: IC50 [1] | IC50 [2] | Ki [2] | IC50 (Cytochrome P450 1A2) | Ki (Cytochrome P450 1A2) | IC50 [3] | IC50 [4] | IC50 [5] | Ki [5] | IC50 [6] | Ki [6] | IC50 (D(1A) dopamine receptor)

CC(=O)CC(c1ccccc1)c1c(O)c2ccccc2oc1=O (stereo unspecified) [WARFARIN]
Not Active: IC50 [1] | IC50 [2] | Ki [2] | IC50 (Cytochrome P450 1A2) | Ki (Cytochrome P450 1A2) | IC50 [3] | IC50 [4] | IC50 [5] | Ki [5] | IC50 [6] | Ki [6] | IC50 (D(1A) dopamine receptor)

C[C@@H](N)[C@H]1CC[C@H](C(=O)Nc2ccncc2)CC1 [Y-27632]
Not Active: IC50 [1] | IC50 [2] | Ki [2] | IC50 (Cytochrome P450 1A2) | Ki (Cytochrome P450 1A2) | IC50 [3] | IC50 [4] | IC50 [5] | Ki [5] | IC50 [6] | Ki [6] | IC50 (D(1A) dopamine receptor)

[Cl-].[Cl-].[Zn+2] [ZINC CHLORIDE]
Not Active: IC50 [1] | IC50 [2] | Ki [2] | IC50 (Cytochrome P450 1A2) | Ki (Cytochrome P450 1A2) | IC50 [3] | IC50 [4] | IC50 [5] | Ki [5] | IC50 [6] | Ki [6] | IC50 (D(1A) dopamine receptor)
